Measurements reported in patent US20250313563A1, “GLYCOGEN SYNTHASE KINASE 3 INHIBITORS AND USES THEREOF” (The Broad Institute, Inc., priority 2022, published 2025).
pIC50: −log10 of the molar value. Like-named read-outs stand apart in the source and are kept apart here.

Columns and labels:
[1] = target: GSK3α (GST-full length GSK3α) (Homo sapiens (Human), UniProt P49840); test: GSK3α TR-FRET kinase assay; format: biochemical
How it was run: (§1)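 IC50s came from the normalized 665/615 TR-FRET ratio after Tb-anti-pSer641 antibody and streptavidin-d2 detection of phosphorylated biotin-glycogen synthase peptide (200 nM). ATP was 4 μM for GSK3α, 2 μM for GSK3b, or 1 mM; 1 nM enzyme, 100 min, ambient, pH 7.5, after 30-min compound preincubation.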

[2] = target: GSK3b (GST-full length GSK3b) (Homo sapiens (Human), UniProt P49841); test: GSK3b TR-FRET kinase assay; format: biochemical
How it was run: as §1

[3] = 1 nM GSK3α, 4 μM ATP, 30 minute preincubation, Table 16, read-out: GSK3-A TR-FRET BIOCHEMICAL (TR-FRET), IC50
[4] = 1 nM GSK3b, 2 μM ATP, 30 minute preincubation, Table 16, read-out: GSK3-B TR-FRET BIOCHEMICAL (TR-FRET), IC50
[5] = 1 nM GSK3α, 4 μM ATP, 30 minute preincubation, Table 16, read-out: GSK3-A TR-FRET BIOCHEMICAL (TR-FRET)
[6] = 1 nM GSK3b, 2 μM ATP, 30 minute preincubation, Table 16, read-out: GSK3-B TR-FRET BIOCHEMICAL (TR-FRET)
[7] = 1 nM GSK3α, 4 μM ATP, 30 minute preincubation, read-out: GSK3-A TR-FRET BIOCHEMICAL (TR-FRET), IC50
[8] = 1 nM GSK3b, 2 μM ATP, 30 minute preincubation, read-out: GSK3-B TR-FRET BIOCHEMICAL (TR-FRET), IC50
[9] = read-out: GSK3-A (TR-FRET 1 mM ATP), GMean, IC50, 1 mM ATP, geometric mean
[10] = read-out: GSK3-B (TR-FRET 1 mM ATP), GMean, IC50, 1 mM ATP, geometric mean

GSK3b (GST-full length GSK3b), sequence (P49841 whole entry): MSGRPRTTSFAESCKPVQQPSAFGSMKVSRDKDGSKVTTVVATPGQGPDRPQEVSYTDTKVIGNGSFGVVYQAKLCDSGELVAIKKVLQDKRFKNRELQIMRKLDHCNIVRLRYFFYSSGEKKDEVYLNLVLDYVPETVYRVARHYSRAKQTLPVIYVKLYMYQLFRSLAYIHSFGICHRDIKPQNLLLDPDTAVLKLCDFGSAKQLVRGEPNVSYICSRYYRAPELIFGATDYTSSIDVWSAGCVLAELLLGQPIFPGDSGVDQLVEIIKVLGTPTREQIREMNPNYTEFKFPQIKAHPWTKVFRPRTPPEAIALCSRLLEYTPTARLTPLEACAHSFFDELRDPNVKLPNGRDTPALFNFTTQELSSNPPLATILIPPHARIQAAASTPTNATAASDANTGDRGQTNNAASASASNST
GSK3α (GST-full length GSK3α), sequence (P49840 whole entry): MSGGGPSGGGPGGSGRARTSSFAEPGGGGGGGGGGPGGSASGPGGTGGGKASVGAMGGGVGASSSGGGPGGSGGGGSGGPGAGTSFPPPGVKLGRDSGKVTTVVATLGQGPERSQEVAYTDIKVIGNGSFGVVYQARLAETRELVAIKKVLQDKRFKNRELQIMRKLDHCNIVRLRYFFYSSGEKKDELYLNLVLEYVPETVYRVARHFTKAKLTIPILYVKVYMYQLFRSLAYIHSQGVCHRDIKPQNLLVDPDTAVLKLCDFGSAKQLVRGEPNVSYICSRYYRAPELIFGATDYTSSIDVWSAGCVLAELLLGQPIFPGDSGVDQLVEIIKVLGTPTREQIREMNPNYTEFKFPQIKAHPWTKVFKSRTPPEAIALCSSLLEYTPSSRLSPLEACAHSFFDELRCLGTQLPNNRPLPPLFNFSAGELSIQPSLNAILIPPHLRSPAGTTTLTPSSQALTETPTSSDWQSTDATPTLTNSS

| Compound | pIC50 [1, 3] | pIC50 [2, 4] | further results |
| --- | --- | --- | --- |
| CCN(c1cccc(C2(CC)C3=C(CC(C)(C)CC3=O)Nc3n[nH]cc32)c1)c1ncccn1 (stereo not shown) [Compound 919840] | ≥ 7.00 | ≥ 7.00 |  |
| CC1(C)CC(=O)C2=C(C1)Nc1n[nH]cc1[C@]21CCOC(C)(C)C1 [Compound 924298] | 5.30 to 6.00 | 5.30 to 6.00 |  |
| CC1(C)CC(=O)C2=C(C1)Nc1n[nH]cc1[C@@]21CCOC(C)(C)C1 [Compound 924299] |  |  | pIC50 [1, 5]: 6.00 to 7.00; pIC50 [2, 6]: 6.00 to 7.00 |
| CC1(C)CC(=O)C2=C(C1)Nc1n[nH]cc1[C@@]21CCOC2(CCOCC2)C1 [Compound 924306] |  |  | pIC50 [1, 7]: 6.00 to 7.00; pIC50 [2, 8]: 6.00 to 7.00 |
| C[C@H]1C[C@]2(CCO1)C1=C(CC(C)(C)CC1=O)Nc1n[nH]cc12 [Compound 924307] |  |  | pIC50 [1, 5]: 6.00 to 7.00; pIC50 [2, 6]: 6.00 to 7.00 |
| C[C@@H]1C[C@@]2(CCO1)C1=C(CC(C)(C)CC1=O)Nc1n[nH]cc12 [Compound 924308] |  |  | pIC50 [1, 5]: 6.00 to 7.00; pIC50 [2, 6]: 6.00 to 7.00 |
| C[C@H]1COCC[C@@]12C1=C(CC(C)(C)CC1=O)Nc1n[nH]cc12 [Compound 924309] | 5.30 to 6.00 | < 5.30 |  |
| C[C@@H]1COCC[C@]12C1=C(CC(C)(C)CC1=O)Nc1n[nH]cc12 [Compound 924310] | < 5.30 | < 5.30 |  |
| CC[C@H]1C[C@]2(CCO1)C1=C(CC(C)(C)CC1=O)Nc1n[nH]cc12 [Compound 924311] | 6.00 to 7.00 | 5.30 to 6.00 |  |
| CCC1(c2cccc(N3CC(C)C(C)C3)c2)C2=C(CC(C)(C)CC2=O)Nc2n[nH]cc21 (stereo not shown) [Compound 924504] | 6.00 to 7.00 | 6.00 to 7.00 |  |
| CC[C@]1(c2cccc(N3C[C@H](C)[C@@H](C)C3)c2)C2=C(CC(C)(C)CC2=O)Nc2n[nH]cc21 [Compound 924520] | < 5.30 | < 5.30 |  |
| CC[C@@H]1C[C@@]2(CCO1)C1=C(CC(C)(C)CC1=O)Nc1n[nH]cc12 [Compound 924715] |  |  | pIC50 [1, 5]: ≥ 7.00; pIC50 [2, 6]: 6.00 to 7.00 |
| CCC1(c2cccc(N(C)c3nc(C)cc(C)n3)c2)C2=C(CC(C)(C)CC2=O)Nc2n[nH]cc21 (stereo not shown) [Compound 926304] | 6.00 to 7.00 | 5.30 to 6.00 |  |
| CC1(C)CC(=O)C2=C(C1)Nc1n[nH]cc1C21COC2(CN(S(C)(=O)=O)C2)C1 (stereo not shown) [Compound 926808] |  |  | pIC50 [1, 7]: ≥ 7.00; pIC50 [2, 8]: ≥ 7.00 |
| C[C@H]1C[C@@]2(CCN1S(=O)(=O)c1ccn(C)n1)C1=C(CC(C)(C)CC1=O)Nc1n[nH]cc12 [Compound 926815] |  |  | pIC50 [1, 5]: ≥ 7.00; pIC50 [2, 6]: ≥ 7.00 |
| CC1(C)CC(=O)C2=C(C1)Nc1n[nH]cc1[C@]21COC2(CN(S(C)(=O)=O)C2)C1 [Compound 926823] |  |  | pIC50 [1, 7]: 6.00 to 7.00; pIC50 [2, 8]: 5.30 to 6.00 |
| C[C@H]1C[C@]2(CCN1S(C)(=O)=O)C1=C(CC(C)(C)CC1=O)Nc1n[nH]cc12 [Compound 926827] |  |  | pIC50 [1, 5]: ≥ 7.00; pIC50 [2, 6]: ≥ 7.00 |
| C[C@H]1C[C@]2(CCN1S(=O)(=O)c1ccn(C)n1)C1=C(CC(C)(C)CC1=O)Nc1n[nH]cc12 [Compound 926832] |  |  | pIC50 [1, 5]: ≥ 7.00; pIC50 [2, 6]: 6.00 to 7.00 |
| CCC1(c2cccc(-c3cnn4c3CCCC4)c2)C2=C(CC(C)(C)CC2=O)Nc2n[nH]cc21 (stereo not shown) [Compound 926836] | ≥ 7.00 | 6.00 to 7.00 |  |
| CCC1(c2cccc(-c3cn(C)nc3C)c2)C2=C(CC(C)(C)CC2=O)Nc2n[nH]cc21 (stereo not shown) [Compound 926840] | ≥ 7.00 | ≥ 7.00 |  |
| CCC1(c2cccc(-c3cnnc(C)c3)c2)C2=C(CC(C)(C)CC2=O)Nc2n[nH]cc21 (stereo not shown) [Compound 926844] | ≥ 7.00 | 6.00 to 7.00 |  |
| CC(=O)N1CC2(C1)C[C@]1(CO2)C2=C(CC(C)(C)CC2=O)Nc2n[nH]cc21 [Compound 926861] |  |  | pIC50 [1, 7]: ≥ 7.00; pIC50 [1, 9]: ≥ 7.00; pIC50 [2, 8]: ≥ 7.00; pIC50 [2, 10]: ≥ 7.00 |

| Compound | pIC50 [1, 3] | pIC50 [2, 4] | further results |
| --- | --- | --- | --- |
| CC(=O)N1CC2(C1)C[C@@]1(CO2)C2=C(CC(C)(C)CC2=O)Nc2n[nH]cc21 [Compound 926872] |  |  | pIC50 [1, 7]: 6.00 to 7.00; pIC50 [2, 8]: 6.00 to 7.00 |
| CCC1(c2cccc(-c3ccnc(C)c3)c2)C2=C(CC(C)(C)NC2=O)Nc2n[nH]cc21 (stereo not shown) [Compound 927325] |  |  | pIC50 [1, 7]: ≥ 7.00; pIC50 [1, 9]: 6.00 to 7.00; pIC50 [2, 8]: 6.00 to 7.00; pIC50 [2, 10]: < 5.30 |
| CCC1(c2cccc(-c3cc(C)ncc3F)c2)C2=C(CC(C)(C)CC2=O)Nc2n[nH]cc21 (stereo not shown) [Compound 927339] | 5.30 to 6.00 | < 5.30 |  |
| CC[C@@]1(c2cccc(-c3ccnc(C)c3F)c2)C2=C(CC(C)(C)CC2=O)Nc2n[nH]c(C)c21 [Compound 927340] | < 5.30 | < 5.30 |  |
| CCC1(c2cccc(NS(C)(=O)=O)c2)C2=C(CC(C)(C)CC2=O)Nc2n[nH]cc21 (stereo not shown) [Compound 927341] | 5.30 to 6.00 | 5.30 to 6.00 |  |
| CCC1(c2cccc(-c3ccnnc3)c2)C2=C(CC(C)(C)CC2=O)Nc2n[nH]cc21 (stereo not shown) [Compound 927342] | ≥ 7.00 | ≥ 7.00 |  |
| CC1(C)CC(=O)C2=C(C1)Nc1n[nH]cc1C21CCCS(=O)(=O)CC1 (stereo not shown) [Compound 927343] |  |  | pIC50 [1, 5]: ≥ 7.00; pIC50 [2, 6]: 6.00 to 7.00 |
| CCC1(c2cccc(S(=O)(=O)C3CCOCC3)c2)C2=C(CC(C)(C)CC2=O)Nc2n[nH]cc21 (stereo not shown) [Compound 927344] | ≥ 7.00 | ≥ 7.00 |  |
| CCC1(c2cccc(-c3cc(C)ncc3F)c2)C2=C(CC(C)(C)CC2=O)Nc2n[nH]cc21 (stereo not shown) [Compound 927346] | ≥ 7.00 | ≥ 7.00 | pIC50 [1, 9]: ≥ 7.00; pIC50 [2, 10]: 5.30 to 6.00 |
| CC[C@]1(c2cccc(-c3ccnn3C)c2)C2=C(CC(C)(C)NC2=O)Nc2n[nH]cc21 [Compound 927390] |  |  | pIC50 [1, 7]: 6.00 to 7.00; pIC50 [2, 8]: < 5.30 |
| CCC1(c2cccc(N(C)c3nccc(OC)n3)c2)C2=C(CC(C)(C)CC2=O)Nc2n[nH]cc21 (stereo not shown) [Compound 929387] | ≥ 7.00 | ≥ 7.00 |  |
| CCC1(c2cccc(C(F)(F)F)c2)C2=C(CN(Cc3ccccc3)C2=O)Nc2n[nH]cc21 (stereo not shown) [Compound 929388] |  |  | pIC50 [1, 9]: 6.00 to 7.00; pIC50 [2, 6]: 6.00 to 7.00; pIC50 [2, 10]: < 5.30 |
| CCn1nccc1-c1cccc(C2(CC)C3=C(CC(C)(C)CC3=O)Nc3n[nH]cc32)c1 (stereo not shown) [Compound 929398] | ≥ 7.00 | ≥ 7.00 |  |
| CCC1(c2cccc(-c3ccnn3C(C)C)c2)C2=C(CC(C)(C)CC2=O)Nc2n[nH]cc21 (stereo not shown) [Compound 929399] | ≥ 7.00 | ≥ 7.00 |  |
| CCC1(c2cccc(-c3ccnn3CCC(C)C)c2)C2=C(CC(C)(C)CC2=O)Nc2n[nH]cc21 (stereo not shown) [Compound 929401] | ≥ 7.00 | ≥ 7.00 |  |
| CCC1(c2cccc(-c3cc(C)nn3C)c2)C2=C(CC(C)(C)CC2=O)Nc2n[nH]cc21 (stereo not shown) [Compound 929402] | ≥ 7.00 | 6.00 to 7.00 |  |
| CC1(C)CC(=O)C2=C(C1)Nc1n[nH]cc1C21CN(Cc2ccccc2)C1 [Compound 929436] | < 5.30 | < 5.30 |  |
| CC1(C)CC(=O)C2=C(C1)Nc1n[nH]cc1C21CCN(S(=O)(=O)Cc2ccccc2)CC1 [Compound 929437] |  |  | pIC50 [1, 7]: ≥ 7.00; pIC50 ([1]; GSK3-A (TR-FRET 1 mM ATP), GMean, IC50, 1 mM ATP, geometric mean): ≥ 7.00; pIC50 [2, 8]: ≥ 7.00; pIC50 ([2]; GSK3-B (TR-FRET 1 mM ATP), GMean, IC50, 1 mM ATP, geometric mean): 6.00 to 7.00 |
| CC1(C)CC(=O)C2=C(C1)Nc1n[nH]cc1C21CN(Cc2ccccn2)C1 [Compound 929438] | < 5.30 | < 5.30 |  |
| Cn1cc(CN2CC3(C2)C2=C(CC(C)(C)CC2=O)Nc2n[nH]cc23)cn1 [Compound 929439] | < 5.30 | < 5.30 |  |
| CC1(C)CC(=O)C2=C(C1)Nc1n[nH]cc1C21CN(S(=O)(=O)CC2CC2)C1 [Compound 929440] |  |  | pIC50 [1, 5]: ≥ 7.00; pIC50 [2, 6]: ≥ 7.00 |
| CC1(C)CC(=O)C2=C(C1)Nc1n[nH]cc1C21CN(CCc2ccccc2)C1 [Compound 929441] | < 5.30 | < 5.30 |  |
